Key:
Type in all cases: in vivo
[1] = tested on: barnyard grass (Echinochloa crus-galli); test: Pre-emergence application, herbicidal effect on barnyard grass (Table 1); design: key: 0: not damaged; 5: completely killed; conditions: 20 days after application, score 0-5
Procedure, shortened: (§1)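 Compounds, formulated as water-diluted wettable powder, were applied to the soil surface after sowing and covering the seeds in pots of about 10 cm. Effects were rated on a 0 (no damage) to 5 (complete kill) scale after 20 days of greenhouse growth.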

[2] = tested on: large crabgrass (Digitaria sanguinalis); test: Pre-emergence application, herbicidal effect on large crabgrass (Table 1); design: key: 0: not damaged; 5: completely killed; conditions: 20 days after application, score 0-5
Procedure, shortened: as §1

radish = test: Pre-emergence application, herbicidal effect on radish (Table 1); design: key: 0: not damaged; 5: completely killed; conditions: 20 days after application, score 0-5
Procedure, shortened: as §1

[3] = tested on: redroot pigweed (Amaranthus retroflexus); test: Pre-emergence application, herbicidal effect on redroot pigweed (Table 1); design: key: 0: not damaged; 5: completely killed; conditions: 20 days after application, score 0-5
Procedure, shortened: as §1

[4] = tested on: common purslane (Portulaca oleracea); test: Pre-emergence application, herbicidal effect on common purslane (Table 1); design: key: 0: not damaged; 5: completely killed; conditions: 20 days after application, score 0-5
Procedure, shortened: as §1

[5] = tested on: common lambsquarter (Chenopodium album); test: Pre-emergence application, herbicidal effect on common lambsquarter (Table 1); design: key: 0: not damaged; 5: completely killed; conditions: 20 days after application, score 0-5
Procedure, shortened: as §1

rice = test: Water application, phytotoxicity on rice (Table 2); design: key: 0: no effect; 1: very slightly affected; 2: slightly affected; 3: moderately affected; 4: considerably affected; 5: completely killed; conditions: 25 days, score 0-5
Procedure, shortened: (§2)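 Ratings on a 0–5 scale taken 25 days post-treatment for rice injury, barnyard grass, and naturally emerging monochoria, false pimpernel and toothcup. Compounds as wettable powder went onto waterlogged paddy soil holding rice seedlings transplanted at 3 leaves and barnyard grass seed.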

[6] = tested on: barnyard grass (Echinochloa crus-galli); test: Water application, herbicidal effect on barnyard grass (Table 2); design: key: 0: not damaged; 5: completely killed; conditions: 25 days, score 0-5
Procedure, shortened: as §2

[7] = tested on: broad-leaved weeds, e.g., monochoria, false pimpernel and toothcup; test: Water application, herbicidal effect on broad-leaved weeds (Table 2); design: key: 0: not damaged; 5: completely killed; conditions: 25 days, score 0-5
Procedure, shortened: as §2

| SMILES | Herbicidal effect, barnyard grass ([1]; 10 g./a.) | Herbicidal effect, barnyard grass ([1]; 20 g./a.) | Herbicidal effect, barnyard grass ([1]; 40 g./a.) | Herbicidal effect, large crabgrass ([2]; 10 g./a.) | Herbicidal effect, large crabgrass ([2]; 20 g./a.) | Herbicidal effect, large crabgrass ([2]; 40 g./a.) | Herbicidal effect, radish (radish; 10 g./a.) | Herbicidal effect, radish (radish; 20 g./a.) | Herbicidal effect, radish (radish; 40 g./a.) | Herbicidal effect, redroot pigweed ([3]; 10 g./a.) | Herbicidal effect, redroot pigweed ([3]; 20 g./a.) | Herbicidal effect, redroot pigweed ([3]; 40 g./a.) | Herbicidal effect, common purslane ([4]; 10 g./a.) | Herbicidal effect, common purslane ([4]; 20 g./a.) | Herbicidal effect, common purslane ([4]; 40 g./a.) | Herbicidal effect, common lambsquarter ([5]; 10 g./a.) | Herbicidal effect, common lambsquarter ([5]; 20 g./a.) | Herbicidal effect, common lambsquarter ([5]; 40 g./a.) | Phytotoxicity on rice (rice; 10 g/a) | Phytotoxicity on rice (rice; 20 g/a) | further results |
| --- | --- | --- | --- | --- | --- | --- | --- | --- | --- | --- | --- | --- | --- | --- | --- | --- | --- | --- | --- | --- | --- |
| C=C(C)CSP(=O)(OCC)SCC(=O)N1CCCCC1CC (stereo not drawn) [Compound 81] | 5 | 5 | 5 | 5 | 5 | 5 | 0 | 0 | 1 | 5 | 5 | 5 | 5 | 5 | 5 | 5 | 5 | 5 | 0 | 0 | Phytotoxicity on rice (rice; 40 g/a): 1; Herbicidal effects, barnyard grass ([6]; 10 g/a): 5; Herbicidal effects, barnyard grass ([6]; 20 g/a): 5; Herbicidal effects, barnyard grass ([6]; 40 g/a): 5; Herbicidal effects, broad-leaved weeds ([7]; 10 g/a): 5; Herbicidal effects, broad-leaved weeds ([7]; 20 g/a): 5; Herbicidal effects, broad-leaved weeds ([7]; 40 g/a): 5 |
| CCCOP(=O)(SCCC(C)C)SCC(=O)N1CCCCC1CC (stereo not drawn) [Compound 90] | 5 | 5 | 5 | 5 | 5 | 5 | 0 | 0 | 0 | 3 | 4 | 5 | 3 | 4 | 5 | 3 | 3 | 5 | 0 | 0 | Phytotoxicity on rice (rice; 40 g/a): 1; Herbicidal effects, barnyard grass ([6]; 10 g/a): 5; Herbicidal effects, barnyard grass ([6]; 20 g/a): 5; Herbicidal effects, barnyard grass ([6]; 40 g/a): 5; Herbicidal effects, broad-leaved weeds ([7]; 10 g/a): 5; Herbicidal effects, broad-leaved weeds ([7]; 20 g/a): 5; Herbicidal effects, broad-leaved weeds ([7]; 40 g/a): 5 |

— US4015974A, “Amido phosphorothiolates” (priority 1972, dated 1977)
